The source made the active and inactive calls. No cut-off for these calls is given here.
Experiments:
[1] = biological target: T1, Amine oxidase [flavin-containing] B (Homo sapiens, UniProt P27338); assay: (§1) Inhibition of MAO-B (unknown origin) at 10 uM using beetle luciferin derived luminogenic substrate preincubated for 15 mins followed by substrate addition measured after 60 mins by MAO-Glo assay relative to control; settings: 1 h, 10 µM
T1 sequence (P27338 whole entry): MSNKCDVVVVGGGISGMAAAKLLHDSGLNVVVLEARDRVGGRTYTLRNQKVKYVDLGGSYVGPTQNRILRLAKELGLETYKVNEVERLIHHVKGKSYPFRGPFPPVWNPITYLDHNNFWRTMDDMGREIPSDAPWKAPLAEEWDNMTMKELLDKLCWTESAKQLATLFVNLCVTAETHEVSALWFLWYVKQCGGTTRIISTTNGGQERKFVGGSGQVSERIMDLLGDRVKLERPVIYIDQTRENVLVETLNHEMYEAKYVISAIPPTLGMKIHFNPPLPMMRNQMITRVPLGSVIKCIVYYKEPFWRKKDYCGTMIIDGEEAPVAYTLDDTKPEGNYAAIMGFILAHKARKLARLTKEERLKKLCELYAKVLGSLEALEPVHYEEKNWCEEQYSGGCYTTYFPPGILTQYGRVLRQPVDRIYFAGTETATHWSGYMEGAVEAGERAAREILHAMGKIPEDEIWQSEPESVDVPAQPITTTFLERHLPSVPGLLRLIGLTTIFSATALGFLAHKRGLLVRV

[2] = biological target: T1, Amine oxidase [flavin-containing] B; assay: Inhibition of MAO-B (unknown origin) using beetle luciferin derived luminogenic substrate preincubated for 15 mins followed by substrate addition measured after 60 mins by MAO-Glo assay
[3] = biological target: T2, Amine oxidase [flavin-containing] A (Homo sapiens, UniProt P21397)
T2 sequence (P21397 whole entry): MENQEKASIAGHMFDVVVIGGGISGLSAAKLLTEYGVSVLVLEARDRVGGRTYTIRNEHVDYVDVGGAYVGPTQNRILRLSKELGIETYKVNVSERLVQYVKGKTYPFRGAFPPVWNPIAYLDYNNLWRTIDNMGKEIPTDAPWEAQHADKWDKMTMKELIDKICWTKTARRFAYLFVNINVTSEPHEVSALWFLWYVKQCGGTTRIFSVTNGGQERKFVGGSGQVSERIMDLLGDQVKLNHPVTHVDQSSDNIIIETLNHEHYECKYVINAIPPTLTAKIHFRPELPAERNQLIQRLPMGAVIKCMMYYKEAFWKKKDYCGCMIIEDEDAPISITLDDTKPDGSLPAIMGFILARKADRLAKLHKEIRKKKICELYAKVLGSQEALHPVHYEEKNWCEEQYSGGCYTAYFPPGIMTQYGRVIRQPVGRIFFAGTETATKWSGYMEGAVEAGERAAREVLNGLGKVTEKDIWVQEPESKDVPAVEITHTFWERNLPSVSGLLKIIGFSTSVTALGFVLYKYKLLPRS

[4] = biological target: T3, Lysine-specific histone demethylase 1A (Homo sapiens, UniProt O60341); settings: 10 uM
[5] = biological target: T3, Lysine-specific histone demethylase 1A
[6] = system: THP-1; assay: Inhibition of colony formation in human THP1 cells at 0.5 to 50 uM after […] by light microscopic method; assay type: functional, cell-based
[7] = biological target: T3, Lysine-specific histone demethylase 1A; settings: 100 uM
[8] = biological target: T4, MAO-A (Homo sapiens, UniProt P21397); assay: Inhibition of MAO-A (unknown origin) at 1 uM using beetle luciferin derived luminogenic substrate preincubated for 15 mins followed by substrate addition measured after 60 mins by MAO-Glo assay relative to control; settings: MAO-A enzyme (unknown origin), probe beetle luciferin derived luminogenic substrate
T4 sequence (P21397 whole entry): T2 sequence (P21397 whole entry)

[9] = biological target: T5, MAO-B (Homo sapiens, UniProt P27338); assay: as §1; settings: MAO-B enzyme (unknown origin), probe beetle luciferin derived luminogenic substrate
T5 sequence (P27338 whole entry): T1 sequence (P27338 whole entry)

[10] = biological target: T4, MAO-A; assay: in vitro; settings: MAO-A enzyme (unknown origin), probe beetle luciferin derived luminogenic substrate
[11] = biological target: T5, MAO-B; assay: in vitro; settings: MAO-B enzyme (unknown origin), probe beetle luciferin derived luminogenic substrate
[12] = biological target: T3, Lysine-specific histone demethylase 1A; remark: listed apart in the source
[13] = biological target: T5, MAO-B; assay: Inhibition of MAO-B (unknown origin) at 250 uM using beetle luciferin derived luminogenic substrate preincubated for 15 mins followed by substrate addition measured after 60 mins by MAO-Glo assay relative to control; settings: MAO-B enzyme (unknown origin), probe beetle luciferin derived luminogenic substrate

With COc1ncccc1CN[C@H]1C[C@@H]1c1ccccc1 the “inhibition (INH)” value [1] was “Not Active”.
c1ccc([C@H]2C[C@@H]2NCc2cccnc2)cc1 (relative stereo) was tested, and the “inhibition (INH)” value [1] was “Not Active”.
C[C@@H]1[C@H](NCc2ccc(Cl)cc2)[C@H]1c1ccccc1 (relative stereo) was tested, and the IC50 [2] was 10.5 µM, the IC50 [3] was 0.31 µM and the inhibition [4] was “inactive”. For the same compound, the Tm [5] was 47.9 °C and the inhibition [6] was “inactive”.
In the case of C[C@@H]1[C@H](N)[C@H]1c1ccccc1.Cl (relative stereo), the “inhibition (INH)” value [1] is reported as “Not Active” and the inhibition [7] is reported as “inactive”.
Work on Fc1cc(Br)ccc1CN[C@H]1C[C@@H]1c1ccccc1 (relative stereo) yielded an inhibition at 1 h, 1 µM [8] of 27%.
With c1ccc(-c2cccc(CN[C@H]3C[C@@H]3c3ccccc3)c2)cc1 (relative stereo) the “inhibition (INH)” value [1] was “Not Active” and the IC50 [3] was 0.161 µM.
Work on COc1ccc(CN[C@H]2C[C@@H]2c2ccccc2)cc1 (relative stereo) yielded an inhibition at 1 h, 1 µM [8] of 30%.
For O=[N+]([O-])c1cc(CN[C@H]2C[C@@H]2c2ccccc2)ccc1Cl (relative stereo), the inhibition at 1 h, 10 µM [9] was 13% and the inhibition at 1 h, 10 µM [10] was 100%.
CC(=O)Nc1ccc(CN[C@H]2C[C@@H]2c2ccccc2)cc1 (relative stereo) was tested, and the inhibition at 1 h, 10 µM [9] was 17% and the inhibition at 1 h, 10 µM [10] was 48%.
For Fc1ccccc1CN[C@H]1C[C@@H]1c1ccccc1 (relative stereo), the inhibition at 1 h, 10 µM [9] was 16% and the inhibition at 1 h, 10 µM [10] was 20%.
With COc1cccc(CN[C@H]2C[C@@H]2c2ccccc2)c1 (relative stereo) the “inhibition (INH)” value [1] was “Not Active” and the inhibition at 1 h, 10 µM [10] was 79%.
c1ccc(COc2cccc(CN[C@H]3C[C@@H]3c3ccccc3)c2)cc1 (relative stereo) was tested, and the inhibition at 1 h, 1 µM [11] was 23% and the inhibition at 1 h, 1 µM [8] was 60%.
With CN(C)c1ccc(CN[C@H]2C[C@@H]2c2ccccc2)cc1 (relative stereo) the inhibition at 1 h, 1 µM [8] was 30%.
In the case of C[C@@H]1[C@H](NCc2ccc(Cl)cc2Cl)[C@H]1c1ccccc1 (relative stereo), the IC50 [2] is reported as 56.2 µM, the IC50 [3] is reported as 0.78 µM and the inhibition [7] is reported as “inactive”.
Compound Clc1ccccc1CN[C@H]1C[C@@H]1c1ccccc1 (relative stereo) has an inhibition at 1 h, 10 µM [9] of 21% and an inhibition at 1 h, 10 µM [10] of 62%.
c1ccc(CN[C@H]2C[C@@H]2c2ccccc2)cc1 (relative stereo) was tested, and the inhibition at 1 h, 10 µM [9] was 33% and the IC50 [3] was 5.7 µM.
CCc1ccc(CN[C@H]2C[C@@H]2c2ccccc2)cc1 (relative stereo) showed an inhibition at 1 h, 1 µM [11] of 12% and an inhibition at 1 h, 1 µM [8] of 33%.
Compound COc1ccccc1CN[C@H]1C[C@@H]1c1ccccc1 (relative stereo) has an inhibition at 1 h, 10 µM [9] of 36%.
With COc1ccccc1CN[C@H]1[C@@H](C)[C@@H]1c1ccccc1 (relative stereo) the IC50 [12] was “Not Active”, the “inhibition (INH)” value [1] was “Not Active” and the inhibition at 1 h, 10 µM [10] was 32%.
Work on Brc1ccccc1CN[C@H]1C[C@@H]1c1ccccc1 (relative stereo) yielded an inhibition at 1 h, 10 µM [9] of 24% and an inhibition at 1 h, 10 µM [10] of 47%.
Work on NC(=O)c1ccc(CN[C@H]2C[C@@H]2c2ccccc2)cc1 (relative stereo) yielded an IC50 [3] of 24.7 µM and an inhibition at 1 h, 250 µM [13] of 50%.
O=[N+]([O-])c1ccc(N[C@H]2C[C@@H]2c2ccccc2)s1 (relative stereo) gave an inhibition at 1 h, 1 µM [11] of 79% and an inhibition at 1 h, 1 µM [8] of 94%.
O=[N+]([O-])c1ccc(N[C@H]2C[C@@H]2c2ccccc2)o1 (relative stereo) was tested, and the inhibition at 1 h, 1 µM [8] was 27%.
Work on Clc1cc(Cl)cc(CN[C@H]2C[C@@H]2c2ccccc2)c1 (relative stereo) yielded an inhibition at 1 h, 1 µM [11] of 17% and an inhibition at 1 h, 1 µM [8] of 30%.

Reference: ChEMBL document CHEMBL4251603, “Structure-activity studies on N-Substituted tranylcypromine derivatives lead to selective inhibitors of lysine specific demethylase 1 (LSD1) and potent inducers of leukemic cell differentiation” (Eur J Med Chem, 2018)
